Data reported in patent US8338424B2, “Guanidine-containing compounds useful as muscarinic receptor antagonists” (Theravance, Inc., priority 2007, dated 2012).

Assays:
[1] = tested on: rats (Sprague-Dawley); test: Rat Einthoven assay (bronchoprotection against MCh); format: in vivo; details: for ID50 (potency): 1.5 hrs post-dose
Procedure: All test compounds are diluted in sterile water and are dosed via the inhalation route (IH). The rats (Sprague-Dawley, male, 250-350 g) are exposed to the aerosol generated from an LC Star Nebulizer Set and driven by a mixture of gases (5% CO2/95% atmospheric air). Each test compound solution is nebulized over a 10 minute time period in a pie shaped dosing chamber capable of holding six rats. At predetermined time points after inhalation of compound, the Einthoven assay is performed.
Thirty minutes prior to the start of pulmonary evaluation, the animals are anesthetized with inactin (thiobutabarbital, 120 mg/kg IP). The jugular vein is catheterized with saline filled polyethylene catheters (PE-50) and used to infuse MCh. The trachea is then dissected and cannulated with a 14G needle and used for rat ventilation during pulmonary evaluation. Once surgery is complete, rats are ventilated using a piston respirator set at a stroke volume of 1 ml/100 g body weight but not exceeding 2.5 ml volume, and at a rate of 90 strokes per minute.
The changes in pressure that occur with each breath are measured. Baseline values are collected for at least 2.5 minutes then rats are challenged non-cumulatively with 2-fold incremental increases of the bronchoconstrictor MCh (5, 10, 20, 40 and 80 μg/ml). The MCh is infused for 2.5 minutes from a syringe pump at a rate of 2 mL/kg/min. The animals are euthanized upon completion of the studies.
Changes in ventilation pressure (cm H20) in treated animals are expressed as % inhibition of MCh response relative to control animals.
Standard muscarinic antagonists were evaluated in the rat Einthoven assay 1.5 hrs post-dose.
Standards tiotropium and ipratropium were also evaluated 24 hr and/or 6 hr post-dose in the rat Einthoven assay. […] The observed loss of activity at this time point (6 hr) is consistent with its relatively short duration of action in the clinic.

[2] = tested on: rats (Sprague-Dawley); test: Rat antisialagogue assay (pilocarpine-induced salivation); format: in vivo; details: evaluated at 1, 6, and 24 hr post-dose
Procedure: Rats (Sprague-Dawley, male, 250-350 g) are dosed, anesthetized and cannulated as described for Assay 3. At predetermined time points and after surgery, animals are placed on their dorsal side at a 20° incline with their head in a downward slope. A pre-weighed gauze pad is inserted in the animal's mouth and the muscarinic agonist pilocarpine (PILO) (3 mg/kg, iv.) is administered. Saliva produced during 10 minutes post-PILO is measured gravimetrically by determining the weight of the gauze pad before and after PILO. Antisialagogue effects are expressed as % inhibition of salivation relative to control animals.
The rat antisialagogue assay was developed to assess systemic exposure and calculate the lung selectivity index (LSI) of test compounds. The standard, tiotropium, was evaluated in this model at 1, 6, and 24 hr post-dose. […] This finding is consistent with the peak effects observed in the Einthoven assay.
This model is a modified version of the procedure described in Rechter, “Estimation of anticholinergic drug effects in mice by antagonism against pilocarpine-induced salivation” Ata Pharmacol Toxicol 24:243-254 (1996). The mean weight of saliva in vehicle-treated animals, at each pre-treatment time, is calculated and used to compute % inhibition of salivation, at the corresponding pre-treatment time, at each dose.

Structure (SMILES)	fold less potent 6-hr post-dose compared to 1.5 hr potency ([1]; 6-hr post-dose, 10 and 30 μg/ml)	ID50 (potency) ([1]; inhalation) [µg/mL]	time post dose at which most potent at inhibiting pilocarpine-induced salivation [2] [h]	6 hr versus 24 hr potency values ([1]; 6 hr and 24 hr post-dose)	fold more potent at 6 hr and 24 hr compared to 1.5 hr potency ([1]; 6 hr and 24 hr post-dose)	time of peak bronchoprotection post-dose ([1]; inhalation) [h]
CC(C)[N+]1(C)[C@@H]2CC[C@H]1C[C@@H](OC(=O)C(CO)c1ccccc1)C2 (some centres unmarked) [ipratropium]	about 3 fold	4.4	–	–	–	–
C[N+]1(C)[C@@H]2C[C@@H](OC(=O)C(O)(c3cccs3)c3cccs3)C[C@H]1[C@@H]1O[C@@H]12 [tiotropium]	–	6	6	not significantly different from each other	about 2 fold	6
C[N+]1(C)CCC(OC(=O)C(O)(c2ccccc2)C2CCCC2)C1 (centres unmarked) [glycopyrrolate]	–	15	–	–	–	–
